Measured values taken from patent US20090311795A1, “BILATERAL CONTROL OF FUNCTIONS TRADITIONALLY REGULATED BY ONLY SEROTONIN OR ONLY DOPAMINE” (priority 2002, published 2009).

Legend:
Type in all cases: in vivo, human
[1] = system: urinary serotonin; assay: Urinary serotonin monoamine level assay (ELISA, per gram of creatinine) under amino acid precursor dosing
Method: (§1) For monoamine testing of monoamines of The System, urine is collected approximately 5 to 6 hours prior onset of the sleep cycle and just prior to any amino acid dosing the subject may or may not be taking close to that time period. Once the urine sample is obtained, laboratory assay of the monoamine of The System are performed as well as a urinary creatinine assay and the results are reported in terms of micrograms of monoamine per gram of creatinine.
(§2) Referring now to the data summarized herein, the data is from a database of subjects who have been diagnosed by a licensed healthcare provider as having one or more monoamine dysfunction(s) associated with the serotonin and/or catecholamine systems. The database fields include: • 1. The monoamine diagnosis made by a licensed healthcare provider; • 2. Amino acid dosing of amino acid precursors of the serotonin and dopamine monoamines; • 3. Laboratory assay of urinary serotonin and catecholamine monoamine levels; • 4. The subject's sex; • 5. The subject's age and date of birth; • 6. The subject's weight; • 7. The subject's height; • 8. Any allergies the subject might have; • 9. Any medications (prescription and/or non-prescription) with dosing that the subject might be taking; • 10. Type of license held by the caregiver; and • 11. The subject's state and zip code of residence.
(§3) Also referring to the summarized date, the monoamine analysis performed was subjected to the following criteria: • 1. Urinary monoamine reference ranges reported by the laboratory were determined after precision and accuracy studies had validated initial calibration results; • 2. The reported reference ranges of the laboratory performing the assays were within ±2 standard deviations of the mean for the general population used in calibration; • 3. The reported reference ranges are for adults (18 years of age and older); • 4. Urinary monoamine samples were collected at least 3 to 4 hours after a subject took a dose of amino acid precursors; • 5. Urinary monoamine samples were collected 5 to 6 hours before the onset of the sleep cycle (bed time); • 6. […]

[2] = system: urinary serotonin or dopamine; assay: Phase (1, 2, 3) of urinary monoamine response to amino acid precursor dosing, from serial urinary assays; conditions: for amino acid dosing change required to move between phase 1 and phase 3, much larger changes / amino acid dosing change that moved subjects between phase 1 and phase 3, very small changes: 5-HTP with L-Tyrosine or L-Dopa; for amino acid dosing change required to move between phase 1 and phase 3, much larger changes: other subjects; for amino acid dosing change that moved subjects between phase 1 and phase 3, very small changes: some observed subjects
Excerpt: However, according to certain embodiments, the predictability of determining an individual or group response of urinary serotonin and/or dopamine monoamine levels between two assays is possible when it is properly determined that the subject is in one of three phases of urinary monoamine response to amino acid precursor administration. As identified above, there are at least three phases (referred to as phase 1, phase 2, and phase 3) of urinary monoamine response to amino acid precursor administration. In phase 1, the urinary monoamine level drops as the total amino acid precursor dosing of serotonin and dopamine is increased. In phase 1, the urinary monoamine level increases as the total amino acid precursor dosing of serotonin and dopamine is decreased. In phase 2, the urinary monoamine level remains below the therapeutic range and relatively constant as the total amount of monoamine amino acid precursor dosing is increased or decreased. In order for urinary monoamines to be in phase 2, subtherapeutic urinary monoamine levels must exist. In phase 3, the urinary monoamine level increases as the total amount of amino acid precursor dosing is increased. In phase 3, the urinary monoamine level decreases as the total amount of amino acid precursor dosing is decreased.
In certain embodiments, the phase of the urinary monoamines in response to amino acid therapy can properly be determined by obtaining two laboratory assays on two separate days with the subject taking a different amino acid dosing of serotonin and catecholamine precursors for each test. In general, at least 7 days must elapse between amino acid dosing changes and laboratory assay, but shorter time periods may be indicated at the decision of the individual obtaining the test. The laboratory assays should also be performed on samples that are collected at least 3 to 5 days after the last change in amino acid precursor dosing or start in amino acid precursor dosing of the serotonin and dopamine monoamines. If during the first assay the subject was taking supplemental amino acid precursors of serotonin and dopamine monoamines, then it is preferable that the second assay is performed after the dosing of the supplemental amino acid precursors has changed. The change in supplemental amino acid precursor may be for the serotonin monoamine and/or the dopamine monoamine. If both of the supplemental amino acid precursors of the serotonin and dopamine monoamines are changed, it is preferable that the dosing of both supplemental amino acid precursors is increased or the dosing of both supplemental amino acid precursors is decreased. The subject also should have not missed any dosing of amino acid precursors in the 3 to 5 day period before the sample is collected.
1. Phase 1: • a. Where an increase in amino acid precursor dosing of either the serotonin amino acid precursor and/or the dopamine amino acid precursor causes a decrease in the second assay urinary serotonin or dopamine monoamine levels. • b. Where a decrease in amino acid dosing of either the serotonin amino acid precursor and/or the dopamine amino acid precursor causes an increase in the second assay urinary serotonin or dopamine monoamine levels.
2. Phase 2: • a. Where urinary serotonin and/or dopamine monoamine levels are less than the therapeutic range.
3. Phase 3: • a. Where an increase in amino acid precursor dosing of either the serotonin amino acid precursor and/or the dopamine amino acid precursor causes an increase in the second assay urinary serotonin or dopamine monoamine levels. • b. Where a decrease in the amino acid precursor dosing of either the serotonin amino acid precursor and/or the dopamine amino acid precursor causes a decrease in the second assay urinary serotonin or dopamine monoamine levels.

[3] = system: urinary dopamine; assay: Urinary dopamine monoamine level assay (RIA, per gram of creatinine) under amino acid precursor dosing
Method: as §1, §2, §3

| SMILES | urinary serotonin level ([1]; Example 2, one subject, increase in L-dopa between first and third assay) | urinary excretion of serotonin in phase 3 ([1]; addition of unopposed L-dopa) | amino acid dosing change required to move between phase 1 and phase 3, much larger changes [2] | amino acid dosing change that moved subjects between phase 1 and phase 3, very small changes [2] | change in urinary dopamine levels ([3]; Example 1, one subject, increase in tyrosine, dopamine subtherapeutic) | highest urinary dopamine established in phase 3 by administration of tyrosine ([3]; phase 3, tyrosine as dopamine precursor) | urinary serotonin levels on the second laboratory assay ([1]; Example 1, one subject, increase in tyrosine) | excretion of dopamine in phase 3 by the kidneys ([3]; administration of 5-HTP alone) | 5-HTP dosing giving phase 3 therapeutic urinary serotonin level ([2]; Example 4, final assay, tyrosine increased) | change of 5-HTP dosing that moved urinary serotonin levels from phase 3 to phase 1 ([2]; Example 6, between test 1 and test 2) | daily dosing at which the phase 2/phase 3 inflection point occurs ([2]; dose-response curve of one embodiment, urinary serotonin, balanced amino acids) | daily dosing at the phase 2/phase 3 inflection point, low-dose subjects ([2]; subjects who experience the inflection point at low dose) | daily dosing at the phase 2/phase 3 inflection point, high-dose subjects ([2]; subjects without inflection point until this dose per day) |
| --- | --- | --- | --- | --- | --- | --- | --- | --- | --- | --- | --- | --- | --- |
| N[C@@H](Cc1ccc(O)c(O)c1)C(=O)O [L-dopa, 1-3,4-dihydroxyphenylalanine, reference compound] | increased | increases markedly | 900 mg | 60 mg |  |  |  |  |  |  |  |  |  |
| N[C@@H](Cc1ccc(O)cc1)C(=O)O [L-Tyrosine] |  |  | 5,000 mg | 375 mg | without much change | ≤ 475 micrograms of dopamine per gram of creatinine | marked increase |  |  |  |  |  |  |
| N[C@@H](Cc1c[nH]c2ccc(O)cc12)C(=O)O [5-HTP, 5-hydroxytryptophan] |  |  | 900 mg | 37.5 mg |  |  |  | marked increase | 150 mg per day | 150 mg per day | approximately 800 milligrams per day | 50 milligrams per day | 1,500 milligrams |
